Data set [1] deals with COX-2. The note with it: cited from earlier work. An excerpt:
(§1) Aim: Neolignan 4’-O-methylhonokiol (MH) isolated from Magnolia grandiflora is known to have several biological activities, including anti-cancer, anti-inflammatory and anti-neurodegenerative effects. […] The development of COX-2 inhibitor radiolabeled analogs is of special interest for PET visualization of inflammation and tumors.

The test system of data set [2] is COX-1. The note with it: cited from earlier work.
From the text: as §1

Data set [3] can be described thus: carrageenan-induced inflammation in mice. The data set is classed as in vivo. The following applies: preliminary tests on mice with a carrageenan-induced inflammation. The text has this: Aim: Neolignan 4’-O-methylhonokiol (MH) isolated from Magnolia grandiflora is known to have several biological activities, including anti-cancer, anti-inflammatory and anti-neurodegenerative effects. […] The development of COX-2 inhibitor radiolabeled analogs is of special interest for PET visualization of inflammation and tumors. […] The present study describes the radiolabeling procedure of [^11C]MPbP.

The conditions of data set [4]: human, serum.
Experimental: Protein binding, partition coefficient and stability values of ^68Ga-pyoverdine in human serum and in the excess of competing chelator and metal were determined.
Data set [5] has as its system RBCs. As to the kind of experiment: RBC radiolabelling. In kind it is cell-based.
The conditions of data set [6]: after 10 min, BALB/c mice in vivo. As to the method: (§2) Methods: The new MG analogue DOTA-MGS5 was designed based on a combination of the substitutions applied in peptide derivatives previously developed by our group (1). The in vitro and in vivo characterisation after radiolabelling with In-111 and Lu-177 included stability analyses of the radioligands incubated in rat tissue homogenates and after injection into BALB/c mice. Receptor interaction in terms of receptor affinity and cell uptake was analysed using A431 human epidermoid carcinoma cells transfected with human CCK2R (A431-CCK2R) and mock-transfected cells (A431-mock). The targeting potential was evaluated by small animal dual modality single photon emission computed tomography (NanoSPECT/CT) as well as ex vivo biodistribution studies in tumour bearing BALB/c nude mice up to 4 h after injection.

In data set [7] the test system is A431-CCK2R cells. As to the kind of experiment: internalisation into A431-CCK2R cells. In kind it is cell-based, human.
Data set [8] in a line: in vivo. The following applies: BALB/c nude, mouse, A431-CCK2R tumour, total radioactivity, tumour uptake, 4 h p.i. As to the method:
as §2

In data set [9] the test system is Her-2-positive (HCC1954) cell line. Description: cell binding and internalisation, HCC1954. The data set is classed as cell-based. The note with it: controls.
Experimental: Radiopharmaceuticals (0.19 MBq/μg) were tested for their internalisation and effects on viability (dye exclusion) and clonogenicity of Her-2-positive (HCC1954) and –negative (MDA-MB-231) cell lines.
In data set [10] the test system is T47D^+. Description: total cell bound tracer, T47D+. The note with it: 1h incubation.
Experimental: (§3) Total cell bound [^68Ga]1 and [^68Ga]2 over time (0-90 min) was determined according to previously published methods^1,2. FACS analysis with 3 was also performed on the following cell lines T47D^+ (PSMA^+), T47D^Mock (vector only), T47D (wild type).
The subject of data set [11] is LNCaP. As to the kind of experiment: total cell bound tracer, LNCaP. The following applies: 1h incubation.
Experimental: as §3
In data set [12] the test system is PC-3^+. As to the kind of experiment: total cell bound tracer, PC-3+. The following applies: 1h incubation.
Experimental: as §3
In data set [13] the test system is MDA-MB-231^+. As to the kind of experiment: total cell bound tracer, MDA-MB-231+. The note with it: 1h incubation.
Experimental: as §3
Data set [14] has as its system MCF-7 cells. As to the kind of experiment: cellular uptake, internalization and membrane binding. In kind it is cell-based.
Data set [15] is described as follows: cysteine challenge. The following applies: 100 fold molar excess, up to 2 hours. In kind it is physicochemical. As to the method: Cysteine challenge (100 fold molar excess) was also performed.
The conditions of data set [16]: adult, 740 MBq; ref summary of products characteristics; cited from earlier work.
Data set [17] has as its target T1, AT1R (Homo sapiens, UniProt P30556).
T1 construct: using AT1R-positive MDA-MB-231 breast cancer cells; endogenous in cells
As to the kind of experiment: in vitro AT1R binding studies. The data set is classed as cell-based. The following applies: MDA-MB-231 and CHO AT1R cells vs AT1R-negative CHO cells, 4 °C, one hour, with or without losartan potassium 100 μM. As for the experimental part:
Methods: ^19F-AmBF3-losartan was prepared via a copper-catalyzed alkyne-AmBF3 and azide-modified losartan cycloaddition at 45 °C for two hours, followed by semi-preparative HPLC purification. Then, ^19F-AmBF3-losartan (25 nmol, 15.3 μg) was radiolabeled with fluoride-18 (555-925 MBq) via an ^18F–^19F isotope exchange reaction in aqueous phase at 80 °C for 20 minutes and purified by solid phase extraction using a C18 Light Sep-Pak cartridge. In vitro AT1R binding studies were performed at 4 °C for one hour using AT1R-positive MDA-MB-231 breast cancer cells, AT1R-expressing CHO AT1R cells, and AT1R-negative CHO cells. The in vitro studies were conducted in presence or absence of the AT1R blocker losartan potassium (100 μM). AT1R expression in cells was confirmed by quantitative real-time reverse transcription polymerase chain reaction (RT-PCR).

Data set [18] is described as follows: logP of 68Ga-TAFC derivatives. In kind it is physicochemical. The note with it: 68Ga-labelled. As for the experimental part: Stability, protein binding and logP values were determined.
In data set [19] the target is T2, rhuPAR (human, UniProt Q03405 23-305).
T2 construct: Species read from the printed label 'rhuPAR' (recombinant human uPAR); also called membrane anchored receptor uPAR
As to the kind of experiment: ELISA; competitive bioassay: rhuPAR immobilised; ligand 0-1000 uM in the presence of 0.1 nM monoclonal mouse IgG1 antibody (clone #62022, R&D Systems) against the uPA-binding pocket of uPAR; HRP-conjugated goat anti-mouse IgG1, chromogenic substrate, read at 450 nm; assay specific IC50. The note with it: both partners purified. For orientation: An ELISA detects its analyte on a solid surface through an enzyme-linked reagent.

Like-named read-outs stand apart in the source and are kept apart here. *1 amine or outer side, *2 acyl side, *3 side chain or, on linkers, in order; H or OH if unused. Where a SMILES comes first, the peptide text is derived from it. Bridges are numbered along the chain shown (N, C = ends). Where no end group is shown, it is not given here. [ ]: non-standard residue; d: D form. X1 = O=C([C@@H]1CCN=C2C(N[*:1])=Cc3cc(O)c(O)cc3N21)[*:2]; X2 = O=CN(O)CCC[C@H](N[*:1])C(=O)[*:2]; Suc = O=C(CCC(=O)[*:2])[*:1]

Data on 12 molecules can be found in PMC5954004, “19th European Symposium on Radiopharmacy and Radiopharmaceuticals (ESRR’18)” (EJNMMI Radiopharmacy and Chemistry, 2018).

T2 sequence (Q03405 23-305): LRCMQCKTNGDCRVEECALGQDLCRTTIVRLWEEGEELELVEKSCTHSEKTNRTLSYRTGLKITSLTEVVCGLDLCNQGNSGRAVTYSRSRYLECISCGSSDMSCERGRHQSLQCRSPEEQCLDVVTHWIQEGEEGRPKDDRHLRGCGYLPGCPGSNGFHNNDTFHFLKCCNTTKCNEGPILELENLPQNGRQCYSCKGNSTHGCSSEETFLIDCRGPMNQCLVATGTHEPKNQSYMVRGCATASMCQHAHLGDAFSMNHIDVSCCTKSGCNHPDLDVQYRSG
T1 sequence (P30556 whole entry): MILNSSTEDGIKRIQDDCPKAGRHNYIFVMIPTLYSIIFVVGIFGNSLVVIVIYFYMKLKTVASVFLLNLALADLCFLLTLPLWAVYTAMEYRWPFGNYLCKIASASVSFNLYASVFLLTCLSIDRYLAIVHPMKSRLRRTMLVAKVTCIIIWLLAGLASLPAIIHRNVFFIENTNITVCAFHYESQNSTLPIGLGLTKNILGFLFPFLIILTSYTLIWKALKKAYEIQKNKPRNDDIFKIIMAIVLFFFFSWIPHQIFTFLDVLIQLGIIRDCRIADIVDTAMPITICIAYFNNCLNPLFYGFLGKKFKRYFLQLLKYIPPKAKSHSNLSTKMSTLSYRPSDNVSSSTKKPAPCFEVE

As a reminder, the IC50 is the midpoint of a concentration-inhibition curve. On to `C=CCc1ccc(O)c(-c2ccc(OC)c(CC=C)c2)c1` [MH, 4’-O-methylhonokiol], for which the values for the IC50 in data set [1] and in [2] were 62 nM and 2400 nM, respectively.
On to `CCCc1ccc(O)c(-c2ccc(O[11CH3])cc2)c1` [MPbP, 4’-[^11C]methoxy-5-propyl-1,1’-biphenyl-2-ol], for which the anti-inflammatory activity result in [3] is reported as “high anti-inflammatory activity comparable to that of specific COX-2 inhibitor celecoxib”.
In general, fraction unbound refers to free concentration divided by total concentration. A low value points to little free substance. Consider `C[C@@H](O)[C@@H]1NC(=O)[C@H](CCCN(O)C=O)NC(=O)[C@@H](NC(=O)[C@H](CCCN(O)C=O)NC(=O)[C@@H](CO)NC(=O)[C@H](CCCNC(=N)N)NC(=O)[C@@H](CO)NC(=O)[C@@H]2CCN=C3C(NC(=O)CCC(=O)O)=Cc4cc(O)c(O)cc4N32)CCCCNC(=O)[C@H]([C@@H](C)O)NC1=O` [^68Ga-pyoverdine, metal not drawn] (Suc-[X1][dS]R[dS][X2]K[X2]TT; lactam 6-C), for which the log p is -3.07 ± 0.08. The same molecule showed a fraction unbound in data set [4] of over 0.97.
As for `c1cnc2c([O][89Zr]([O]c3cccc4cccnc34)([O]c3cccc4cccnc34)[O]c3cccc4cccnc34)cccc2c1` [^89Zr-oxine], the “labelling efficiency of RBCs” value in data set [5] was “above 64.5%”.
A word on the tissue uptake: it is the percentage of the injected dose found per gram of tissue. Turning to `CCCC[C@@H](C(=O)N[C@@H](CC(=O)O)C(=O)N[C@@H](Cc1cccc2ccccc12)C(N)=O)N(C)C(=O)[C@H](Cc1c[nH]c2ccccc12)NC(=O)CNC(=O)[C@H](Cc1ccc(O)cc1)NC(=O)[C@H](C)NC(=O)[C@@H](CCC(=O)O)NC(=O)CN1CCN(CC(=O)O)CCN(CC(=O)O)CCN(CC(=O)O)CC1` [^111In-DOTA-MGS5, metal not drawn], the “stability in blood, intact peptide” value in data set [6] is recorded as over 80%. Besides, the “internalisation into A431-CCK2R cells” value in [7] (after 1 h) was over 40%; in data set [7] (after 4 h), over 80%. Further, the tissue uptake at 4 h in [8] is 23.5 ± 1.3 %ID/g.
As for `O=C([O-])CN1CCN(CC(=O)[O-])CCN(CC(=O)[O-])CCN(CC(=O)[O-])CC1.[111In+3]` [^111In-DOTA], the “binding to HCC1954 cells” value in [9] is recorded as “did not bind”.
For the molecule “H2N-(Ahx)-Lys-NH-CO-NH-Glu (PSMA-11) [[^68Ga]1]”, the “cell binding, % given radioactivity” value is reported as ~ 2.5% in data set [10], ~ 66% in [11], ~ 13% in data set [12] and ~ 80% in data set [13]. The “cell binding, times above control” value in data set [10] (vs Mock or blocked controls) was found to be 4 x; in data set [12] (vs Mock or blocked controls) it was 10 x; in [13] (vs Mock or blocked controls) it was 100 x.
For “MA-Cys-Tyr-Arg-Leu-Arg-BPA-Nle-Pro-Asn-Ile-OH [^99mTc labelled NPY1 short analogue, 99mTc 3+1 nitrido complex of MA-Cys-Tyr-Arg-Leu-Arg-BPA-Nle-Pro-Asn-Ile-OH]”, in [14], the “activity bound to the membrane” value worked out at 15.2% and the activity internalised is reported as 84.8%. Moreover, in [14] (at 4 hours), the cellular uptake is reported as 3.1±0.2. For the same molecule, the challenge with cysteine entry in [15] is listed as “no ligand exchange”.
In the case of “^99mTc-HYNIC-[D-Phe,Tyr-octreotide [^99mTc-Octreotide]”, the effective dose in data set [16] is reported as 3.7 mSv.
With “ammoniumethyl-trifluoroborate-losartan [^18F-AmBF3-losartan]”, the “binding to AT1R-expressing cells” value in data set [17] is given as “specific binding”.
For the molecule triacetylfusarinine C [[^68Ga]TAFC], the log p in [18] was -2.1.

B1: WX-360: cyclo^21,29[D-Cys^21]-uPA_(21-30)[S21C;H29C] (peptide, UniProt P00749 41-50, looked up)
peptide: [dC]NKYFSNICW
modifications: disulfide 1-9
notes: also called the original structure; source: synthetic peptide (synthesised on solid phase)
Consider B1, for which the binding result in data set [19] is recorded as “binds”.
